10 compounds from ChEMBL document CHEMBL4340512, “Discovery of novel triazolo[4,3-b]pyridazin-3-yl-quinoline derivatives as PIM inhibitors” (Eur J Med Chem, 2019) can be followed below.

For series [1], the system named is MV4-11. Description: Antiproliferative activity against human MV4-11 cells incubated for 72 hrs by CellTiter-Glo luminescence assay. The note with it: MV4-11, 72 h. Format: functional.
The subject of series [2] is SK-MEL19. The experiment in a line: Antiproliferative activity against human SK-MEL-19 cells incubated for 72 hrs by CellTiter-Glo luminescence assay. The class given is functional. The note with it: SK-MEL19, 72 h. For orientation: Cellular ATP, detected with luciferase, serves as a proxy for viable cell number.
For series [3], the system named is HCT-116. Description: Antiproliferative activity against human HCT116 cells incubated for 72 hrs by CellTiter-Glo luminescence assay. Format: functional. The note with it: HCT-116, 72 h.
For series [4], the system named is MIA PaCa-2. The experiment in a line: Antiproliferative activity against human MIAPaCa2 cells incubated for 72 hrs by CellTiter-Glo luminescence assay. The class given is functional. The conditions noted are these: MIA PaCa-2, 72 h.
In series [5] the test system is MDA-MB-231. Description: Antiproliferative activity against human MDA-MB-231 cells incubated for 72 hrs by CellTiter-Glo luminescence assay. The class given is functional. The conditions noted are these: MDA-MB-231, 72 h.
The test system of series [6] is T47D. The experiment in a line: Antiproliferative activity against human T47D cells incubated for 72 hrs by CellTiter-Glo luminescence assay. Format: functional.
Series [7] concerns U-87 MG. Description: Antiproliferative activity against human U87MG cells incubated for 72 hrs by CellTiter-Glo luminescence assay. The class given is functional, U-87MG ATCC.
Series [8] relates to JeKo-1. Description: Antiproliferative activity against human JeKo1 cells incubated for 72 hrs by CellTiter-Glo luminescence assay. The note with it: JeKo-1, 72 h. Format: functional.
Series [9] deals with DU-145. The experiment in a line: Antiproliferative activity against human DU145 cells incubated for 72 hrs by CellTiter-Glo luminescence assay. The note with it: DU-145, 72 h. The class given is functional.
Series [10] deals with Serine/threonine-protein kinase pim-3 (Homo sapiens, UniProt Q86V86). Description: Inhibition of N-terminal 6-His tagged human recombinant PIM3 using PIM tide (ARKRRRHPSGPPTA) as substrate incubated for 1 hr by fluorescence based assay.
The target in series [11] is Serine/threonine-protein kinase pim-2 (Homo sapiens, UniProt Q9P1W9). Description: Inhibition of His tagged human recombinant PIM2 using PIM tide (ARKRRRHPSGPPTA) as substrate incubated for 1 hr by fluorescence based assay.
Series [12] concerns the target T1, Serine/threonine-protein kinase pim-1 (Homo sapiens, UniProt P11309). The experiment in a line: Inhibition of His tagged human recombinant PIM1 using PIM tide (ARKRRRHPSGPPTA) as substrate incubated for 1 hr by fluorescence based assay.
Series [13] addresses T1, Serine/threonine-protein kinase pim-1. The experiment in a line: Inhibition of PIM1 in human NCI-H1299 cells assessed as reduction in BAD phosphorylation at Ser-112 residue incubated for 4 hrs by ELISA. The class given is cell-based. The note with it: read-out: EC50. (In general: An ELISA detects its analyte on a solid surface through an enzyme-linked reagent.)
Series [14] is described as follows: Clearance in iv dosed Balb/c mouse administered as single dose measured after 0.08 to 4 hrs by HPLC/MS analysis. The class given is ADME, organism-based. The note with it: in vivo.
The target of series [15] is T2, Receptor-type tyrosine-protein kinase FLT3 (Homo sapiens, UniProt P36888).
T2 sequence (P36888 whole entry): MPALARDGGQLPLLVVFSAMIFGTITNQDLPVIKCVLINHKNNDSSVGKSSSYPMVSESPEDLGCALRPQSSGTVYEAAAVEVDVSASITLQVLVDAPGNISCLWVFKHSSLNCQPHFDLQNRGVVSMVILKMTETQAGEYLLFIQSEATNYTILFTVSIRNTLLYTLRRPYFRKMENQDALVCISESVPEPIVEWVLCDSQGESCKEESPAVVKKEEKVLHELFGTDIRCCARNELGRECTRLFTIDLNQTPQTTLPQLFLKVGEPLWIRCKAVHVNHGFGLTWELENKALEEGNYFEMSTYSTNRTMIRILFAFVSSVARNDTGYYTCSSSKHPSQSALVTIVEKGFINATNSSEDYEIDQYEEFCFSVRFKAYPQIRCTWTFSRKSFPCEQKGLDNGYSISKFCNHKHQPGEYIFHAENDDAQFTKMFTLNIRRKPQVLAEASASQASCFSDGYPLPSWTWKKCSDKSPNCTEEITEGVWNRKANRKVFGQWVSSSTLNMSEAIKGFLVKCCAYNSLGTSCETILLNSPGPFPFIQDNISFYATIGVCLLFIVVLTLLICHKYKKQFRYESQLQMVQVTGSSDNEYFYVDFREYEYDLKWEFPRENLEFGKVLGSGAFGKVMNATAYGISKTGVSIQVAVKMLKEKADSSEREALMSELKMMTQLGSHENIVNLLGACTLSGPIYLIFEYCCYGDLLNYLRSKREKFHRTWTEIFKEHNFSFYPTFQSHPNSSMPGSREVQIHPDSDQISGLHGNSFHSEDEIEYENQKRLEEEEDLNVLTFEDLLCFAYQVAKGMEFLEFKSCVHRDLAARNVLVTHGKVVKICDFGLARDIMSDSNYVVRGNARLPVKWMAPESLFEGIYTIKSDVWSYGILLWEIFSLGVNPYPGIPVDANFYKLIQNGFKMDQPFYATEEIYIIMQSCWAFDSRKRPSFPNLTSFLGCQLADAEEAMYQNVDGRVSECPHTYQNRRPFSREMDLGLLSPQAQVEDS
Description: Inhibition of human FLT3 using EAIYAAPFAKKK as substrate incubated for 60 mins by fluorescence based assay.

The target of series [16] is Voltage-gated inwardly rectifying potassium channel KCNH2 (Homo sapiens, UniProt Q12809).
The nature of series [17]: Clearance in iv dosed Balb/c mouse administered as single dose measured after 0.08 to 4 hrs by HPLC/MS analysis relative to hepatic blood flow. Format: ADME, organism-based. The conditions noted are these: in vivo.
For series [18], the system named is PC-3. Description: Antiproliferative activity against human PC3 cells incubated for 72 hrs by CellTiter-Glo luminescence assay. The class given is functional. The conditions noted are these: PC-3, 72 h.
The test system of series [19] is Raji. Description: Antiproliferative activity against human Raji cells incubated for 72 hrs by CellTiter-Glo luminescence assay. The class given is functional.

Take `CC(=O)O[C@@]12CO[C@@H]1C[C@H](O)[C@@]1(C)C(=O)[C@H](O)C3=C(C)[C@@H](OC(=O)[C@H](O)[C@@H](NC(=O)OC(C)(C)C)c4ccccc4)C[C@@](O)([C@@H](OC(=O)c4ccccc4)[C@H]21)C3(C)C` [DOCETAXEL ANHYDROUS]: the concentration for 50% growth inhibition (GI50) (as a rule, the concentration giving 50% growth inhibition) in series [1] came out at 0.0005 µM; in [2] it was 0.002 µM.

For the compound `CS(=O)(=O)CCNCc1ccc(-c2ccc3ncnc(Nc4ccc(OCc5cccc(F)c5)c(Cl)c4)c3c2)o1` [LAPATINIB], the concentration for 50% growth inhibition (GI50) in series [3] came to 20 µM; in series [1] it was 10 µM; in series [4] it was 10 µM; in series [5], 20 µM; in series [2] it was 5 µM; in [6], 40 µM. Further, the GI50 in [7] was found to be 10 µM; in series [8], 5 µM; in series [9], 20 µM.

On to `CN1CCOc2c1cnn1c(-c3ccc4c(F)ccc(NCC5(F)CCNCC5)c4n3)nnc21`, for which the concentration for half-maximal inhibition (IC50) (in general, the concentration that inhibits the measured activity by half) in series [10] is 0.014 µM; in [11] it was 3.01 µM; in [12] it was 0.03 µM; in [15], 3.97 µM; in series [16] it was > 20 µM. Moreover, the EC50 (commonly the midpoint of the concentration-response curve) in [13] worked out at 0.283 µM. In series [14], the clearance (in general, a measure of how efficiently the substance is removed, as volume per time) was 9.33 mL/min/kg. The CLH in series [17] is listed as < 30%.

On to `CN1CCOc2c1cnn1c(-c3ccc4c(F)c(F)cc(NCC5(F)CCNCC5)c4n3)nnc21`, for which the 50% inhibitory concentration (IC50) was 0.012 µM in series [10]; 3.59 µM in series [11]; 0.018 µM in series [12]; 6.32 µM in series [15]; > 20 µM in series [16]. The half-maximal effective concentration (EC50) in series [13] worked out at 0.155 µM. Further, in [14], the clearance was 3.83 mL/min/kg. Further, in series [17], the CLH is given as < 30%.

Regarding `CN1CCOc2c1cnn1c(-c3ccc4cccc(NC5CCCCC5)c4n3)nnc21`, the IC50 in [10] is 0.3 µM; in series [11], 3.33 µM; in series [12], 0.032 µM; in [15], > 10 µM; in series [16], > 20 µM. Besides, the EC50 in series [13] was determined as 0.22 µM. Also, the clearance in series [14] is 23.7 mL/min/kg. Moreover, the CLH in series [17] is reported as < 30%.

On to `CS(=O)(=O)N1CCN(Cc2cc3nc(-c4cccc5[nH]ncc45)nc(N4CCOCC4)c3s2)CC1` [PICTILISIB], for which the 50% growth inhibitory concentration (GI50) came to 3 µM in series [18]; 3 µM in [1]; 12 µM in series [4]; 12 µM in series [5]; 6 µM in series [2]; 3 µM in series [6]. The results for the GI50 in series [7] and in series [8] were 6 µM and 5 µM, respectively.

Turning to `CC(=O)c1c(C)c2cnc(Nc3ccc(N4CCNCC4)cn3)nc2n(C2CCCC2)c1=O` [PALBOCICLIB], the GI50 in series [5], in [2], in series [19] and in series [8] was 30 µM each time.

Turning to `CN1CCOc2c1cnn1c(-c3ccc4ccnc(NCC5(F)CCNCC5)c4c3)nnc21`, the concentration for half-maximal inhibition (IC50) was 0.026 µM in [10]; 0.122 µM in series [11]; 0.007 µM in [12]; > 10 µM in [15]; > 20 µM in [16]. Besides, the EC50 in series [13] is 0.2 µM. The clearance in [14] was 23.2 mL/min/kg. The CLH in series [17] is recorded as < 30%.

As to `O=C(CCCCCCC(=O)Nc1ccccc1)NO` [VORINOSTAT], in [18], the GI50 was found to be 5 µM.

Compound `CC(C)C[C@H](NC(=O)[C@H](Cc1ccccc1)NC(=O)c1cnccn1)B(O)O` [BORTEZOMIB] had a GI50 in series [18] of 0.04 µM.
